# Assay results from publication PMC12817916, “A small-molecule HSP90 inhibitor, NVP-HSP990, alleviates rotavirus infection” (Journal of Virology, 2025).
# System: RV (Wa or SA11 strains)
# Assay: RV replication in Caco-2 cells at varying MOI and timing of drug addition (PFA)
# Type: cell-based, Rotavirus
# Protocol: Rhesus monkey embryo kidney cell line MA104 cells (ATCC: CRL-2378.1) were provided by Dr. Elschner (Friedrich-Loeffler-Institute). Human intestinal epithelial cell lines Caco-2 cells (ATCC: HTB-37) and HT-29 cells (ATCC: HTB-38) were from ATCC and kept in our institute. All the cells were cultured in complete DMEM (Dulbecco’s modified Eagle medium [Gibco, USA] plus 10% [vol/vol] fetal bovine serum [FBS] [Gibco, USA] and 1% penicillin/streptomycin [Gibco, USA]) at 37°C with 5% CO2. RV Wa (G1P[8]) and SA11 (G3P[2]) strains were gifted by Professor Duan Zhaojun from the China Center for Disease Control and Prevention (Beijing, China) and propagated in MA104 cells. RV EDIM strain G16P[16] was gifted by Professor Wan Jianwei in Christophe Merieux Laboratory (Beijing) and propagated in BALB/c suckling mice. For RV infection in vitro, the viruses were diluted in DMEM, activated with 10 µg/mL trypsin (Gibco, USA) for 30 min at 37°C, and then added to target cells previously washed once with DMEM. After 1 h of incubation at 37°C, the inoculum was removed; the cells were then washed twice with DMEM (without FBS) and incubated with DMEM (without FBS) at 37°C, which was denoted as 0 h post-infection (h p.i.). HSP90 inhibitors (NVP-HSP990, GA, and 17-AAG) and Ribavirin (Selleck, USA) were dissolved in DMSO (Sigma, USA). The drugs were administered with indicated concentrations at 0 h p.i. in vitro unless otherwise stated, or orally administered in 10 µL volume using a pipette tip with the indicated quantity plus 90% (vol/vol) corn oil.
# (A) Caco-2 cells were infected with RV (Wa or SA11 strains) at varying MOIs (0.001–10), followed by treatment with 100 nM NVP-HSP990 or an equal volume of DMSO (as a control) for 24 h. Viral replication was assessed using PFA. (B) Schematic diagram illustrating the timing of NVP-HSP990 addition and removal. (C) Caco-2 cells were infected with RV (MOI = 1) and treated with 100 nM NVP-HSP990 or with DMSO as control at indicated infection periods as shown in panel B. Viral replication was tested with PFA at 20 h p.i. (D) Caco-2 cells were infected with RV (MOI = 1) and treated with 100 nM HSP990 at 0, 4, 8, 12 h p.i. or treated with DMSO at 0 h p.i. Virus replication was tested with PFA at 24 h p.i. (E) Caco-2 cells were infected with RV (MOI = 1) and further cultivated with DMEM containing 100 nM NVP-HSP990 or DMSO as control for 18 h. Then the infected cells were harvested for qPCR analysis of the expression of RV genes encoding the VP2, VP6, NSP4, and NSP5 proteins. (F) Caco-2 cells were mock-infected with PBS or infected with RV (MOI = 1) and further cultivated with DMEM containing 100 nM NVP-HSP990 or DMSO as control for 18 h. Then the cells were harvested for WB analysis of RV structural proteins VP6 and VP7. […]
smiles,measurement,setting,value
COc1cccc(-c2cc(F)ccc2[C@H]2Cc3nc(N)nc(C)c3C(=O)N2)n1 [NVP-HSP990],inhibitory effect on RV replication,"100 nM, administered after RV infection (0 ~ 20 h p.i.), PFA at 20 h p.i.",~100 fold
same,reduction of final level of RV replication,"100 nM, administered during RV infection (−1 ~ 0 h p.i.), PFA at 20 h p.i.",~ 1 fold
same,inhibition of RV replication across MOIs,"Wa or SA11, MOI 0.001 to 10, 100 nM, 24 h p.i., PFA",Robust inhibition
same,establishment of RV infection or subsequent viral replication,pre-treatment prior to RV infection (−2 ~ −1 h p.i.),did not significantly interfere
